“And” between values parts separate entries of the source, which are not always exact repeats. Identical values can stand only once. Marks after values point to notes of the source that are not given here.
Assay: Safety and tolerability: adverse events per CTCAE v3, dose-limiting toxicity, phase 1 study
Format: in vivo, human (Japanese patients with solid tumors)
Description: A standard 3 + 3 design determined the dose level assignment. Patients were assigned to one of four sequential dose cohorts of once-a-day dose regimen of oral linifanib: 0.05, 0.10, 0.20, or 0.25 mg/kg, administered in the morning. […] Dose-limiting toxicity (DLT) was defined as Grade 4 neutropenia lasting >7 days, Grade 4 thrombocytopenia or decreased hemoglobin, Grade 3 or greater thrombocytopenia (if blood transfusion was required), febrile neutropenia, non-hematological toxicity except for manageable nausea, vomiting, anorexia, diarrhea, constipation or electrolyte abnormality, or a toxicity that required suspension of study drug for >7 days.
Patients self-administered linifanib once daily, on a 21-day cycle after fasting, and treatment continued until disease progression or intolerable toxicity. […] The initial oral dose, 2.5–25.0 mg in increments of 2.5 mg, was determined by the patients’ weights. […] The dose was reduced by 5.0 mg for patients ≥86 kg in the 0.10 mg/kg cohort, for patients in the 0.20 mg/kg cohort who were ≥81 kg at the first reduction and 61–80 and ≥96 kg at the 2nd reduction, and for patients in the 0.25 mg/kg cohort who were ≥66 kg at the first reduction and ≥86 kg at the second reduction. Patients were discontinued if they required dose reduction, specified by cohort: Any reduction (0.05 mg/kg cohort); >1 reduction (0.10 mg/kg cohort, and patients ≤31 kg in the 0.20 mg/kg cohort with an initial 5 mg dose); >2 reductions (0.25 mg/kg cohort, and patients ≥32 kg in the 0.20 mg/kg cohort with an initial ≥7.5 mg dose).
Baseline evaluations included physical examination, body weight, vital signs, 12-lead electrocardiogram, ECOG PS assessment, pregnancy test, laboratory tests, and multiple-gated acquisition scan/echocardiogram. Tumor response and/or disease progression was assessed by computerized tomography (CT) scan or magnetic resonance imaging (MRI) per RECIST [20] at screening and on Day (D) 1 of every second cycle prior to the subsequent treatment period, until tumor progression or until final visit. Complete response and partial response (PR) were defined according to RECIST [20]; objective response rate (ORR) was defined as the proportion of patients with best response of PR or CR among the study population. Safety assessments included laboratory test results and adverse events (AEs), which were graded according to CTCAE v3 [18] and coded by medical dictionary of regulatory activities (MedDRA) 1.0.

In the case of Cc1ccc(F)c(NC(=O)Nc2ccc(-c3cccc4[nH]nc(N)c34)cc2)c1 [linifanib, N-(4-(3-amino-1H-indazol-4-yl)phenyl)-N’-(2-fluoro-5-methylphenyl)urea], the “Neutropenia, linifanib-related AE, patients” value (shortened to “Neutropenia … patients”) (0.20 mg/kg n = 3, G2) is reported as 2, the “Palmar-plantar erythrodysaesthesia, linifanib-related AE, patients” value (from here on “Palmar-plantar erythrodysaesthesia”) (0.20 mg/kg n = 3, G2) is reported as 3 and the “Thrombocytopenia, linifanib-related AE, patients” value (shortened to “Thrombocytopenia … patients”) (0.20 mg/kg n = 3, G2) is reported as 2. For the same compound, the “Weight decreased, linifanib-related AE, patients” value (“Weight decreased” for short) (0.20 mg/kg n = 3, G2) was 2, the “Diarrhea, linifanib-related AE, patients” value (0.20 mg/kg n = 3, G3) was 1 and the “Hypertension, linifanib-related AE, patients” value (“Hypertension … patients” below) (0.20 mg/kg n = 3, G3) was 1. The “Proteinuria, linifanib-related AE, patients” value (“Proteinuria … patients” for short) (0.20 mg/kg n = 3, G3) was 1, the dose-limiting toxicity observed (0.25 mg/kg cohort, one patient, dose interruption >7 days, discontinuation on D29) was “Grade 1 T-wave inversion” and the “Grade 3 linifanib-related AEs” value (0.25 mg/kg dose) was “four”. The “ALT increased, linifanib-related AE, patients” value (“ALT increased” for short) (0.25 mg/kg n = 6, G1) was 3, the “AST increased, linifanib-related AE, patients” value (0.25 mg/kg n = 6, G1) was 6 and the “Blood ALKP increased, linifanib-related AE, patients” value (0.25 mg/kg n = 6, G1) was 4. For the same compound, the “Blood TG increased, linifanib-related AE, patients” value (from here on “Blood TG increased”) (0.25 mg/kg n = 6, G1) was 2, the “Blood TSH increased, linifanib-related AE, patients” value (shortened to “Blood TSH increased”) (0.25 mg/kg n = 6, G1) was 1 and the “Blood cholesterol increased, linifanib-related AE, patients” value (0.25 mg/kg n = 6, G1) was 2. The “Blood urine present, linifanib-related AE, patients” value (0.25 mg/kg n = 6, G1) was 4, the “Fatigue, linifanib-related AE, patients” value (0.25 mg/kg n = 6, G1) was 4 and the “GGT increased, linifanib-related AE, patients” value (0.25 mg/kg n = 6, G1) was 3. The “Leukopenia, linifanib-related AE, patients” value (“Leukopenia … patients” for short) (0.25 mg/kg n = 6, G1) was 3, the “Neutropenia … patients” value (0.25 mg/kg n = 6, G1) was 2 and the “Proteinuria … patients” value (0.25 mg/kg n = 6, G1) was 1. For the same compound, the “Rash, linifanib-related AE, patients” value (0.25 mg/kg n = 6, G1) was 6, the “Thrombocytopenia … patients” value (0.25 mg/kg n = 6, G1) was 2 and the “Weight decreased” value (0.25 mg/kg n = 6, G1) was 1. For the same compound, the “T-wave abnormality, linifanib-related AE, patients” value (0.25 mg/kg n = 6, G1, dose-limiting toxicity) was 1^a, the “Anorexia, linifanib-related AE, patients” value (0.25 mg/kg n = 6, G2) was 2 and the “Blood TG increased” value (0.25 mg/kg n = 6, G2) was 1. For the same compound, the “Blood TSH increased” value (0.25 mg/kg n = 6, G2) was 1, the “Diarrhea, linifanib-related AE, patients” value (0.25 mg/kg n = 6, G2) was 2 and the “Fatigue, linifanib-related AE, patients” value (0.25 mg/kg n = 6, G2) was 1. For the same compound, the “Hypertension … patients” value (0.25 mg/kg n = 6, G2) was 6, the “Leukopenia … patients” value (0.25 mg/kg n = 6, G2) was 2 and the “Neutropenia … patients” value (0.25 mg/kg n = 6, G2) was 2. The “Palmar-plantar erythrodysaesthesia” value (0.25 mg/kg n = 6, G2) was 3, the “Proteinuria … patients” value (0.25 mg/kg n = 6, G2) was 2 and the “Thrombocytopenia … patients” value (0.25 mg/kg n = 6, G2) was 2. The “Weight decreased” value (0.25 mg/kg n = 6, G2) was 1, the “ALT increased” value (0.25 mg/kg n = 6, G3) was 1 and the “Neutropenia … patients” value (0.25 mg/kg n = 6, G3) was 1. The “Proteinuria … patients” value (0.25 mg/kg n = 6, G3) was 2, the “dose reductions or interruptions for hypertension, neutropenia, or leucopenia” value (18 patients) was “no dose reductions or interruptions” and the “ALT increased” value (All patients N = 18, any grade) was 10 (56) n (%). For the same compound, the “AST increased, linifanib-related AE, patients” value (All patients N = 18, any grade) was 13 (72) n (%), the “Anorexia, linifanib-related AE, patients” value (All patients N = 18, any grade) was 7 (39) n (%) and the “Blood ALKP increased, linifanib-related AE, patients” value (All patients N = 18, any grade) was 8 (44) n (%). For the same compound, the “Blood TG increased” value (All patients N = 18, any grade) was 11 (61) n (%), the “Blood TSH increased” value (All patients N = 18, any grade) was 8 (44) n (%) and the “Blood cholesterol increased, linifanib-related AE, patients” value (All patients N = 18, any grade) was 10 (56) n (%). For the same compound, the “Blood urine present, linifanib-related AE, patients” value (All patients N = 18, any grade) was 9 (50) n (%), the “Diarrhea, linifanib-related AE, patients” value (All patients N = 18, any grade) was 8 (44) n (%) and the “Fatigue, linifanib-related AE, patients” value (All patients N = 18, any grade) was 9 (50) n (%). For the same compound, the “GGT increased, linifanib-related AE, patients” value (All patients N = 18, any grade) was 8 (44) n (%), the “Hypertension … patients” value (All patients N = 18, any grade) was 17 n (%) and 17 (94) n (%) and the “Leukopenia … patients” value (All patients N = 18, any grade) was 10 (56) n (%). The “Neutropenia … patients” value (All patients N = 18, any grade) was 11 (61) n (%), the “Palmar-plantar erythrodysaesthesia” value (All patients N = 18, any grade) was 9 (50) n (%) and the “Proteinuria … patients” value (All patients N = 18, any grade) was 10 (56) n (%). For the same compound, the “Rash, linifanib-related AE, patients” value (All patients N = 18, any grade) was 11 (61) n (%), the “T-wave abnormality, linifanib-related AE, patients” value (All patients N = 18, any grade) was 2 (11) n (%) and the “Thrombocytopenia … patients” value (All patients N = 18, any grade) was 8 (44) n (%). The “Weight decreased” value (All patients N = 18, any grade) was 10 (56) n (%), the tolerability (Japanese patients with solid tumors, dose range 0.05–0.25 mg/kg) was “well tolerated” and the “number of DLTs reported” value (all cohorts, 18 patients) was “Two”. For the same compound, the “Grade 4 or 5 AEs” value (all doses, 18 patients) was “no Grade 4 or 5 AEs” and the “patients who discontinued due to AEs” value (of 16 who discontinued) was “two”.

Reference: article PMC3362725, “An open-label, phase 1 study evaluating safety, tolerability, and pharmacokinetics of linifanib (ABT-869) in Japanese patients with solid tumors” (Cancer Chemotherapy and Pharmacology, 2012)
